Reference: patent publication US10072034B2, “Kinase inhibitors” (Respivert Limited, priority 2016, dated 2018)

Columns and labels:
Jurkat cells = assay: Cell cytotoxicity assay, Jurkat cell viability (assay (r)); format: cell-based, human; details: 24 hours
Method: 1×10^5 Jurkat cells (immortalised human T lymphocytes) are added to the appropriate number of wells of a 96 well plate in 100 μL of media (RPMI supplemented with 10% foetal bovine serum). 1 μL of DMSO control (final concentration 1.0% v/v) or test compound (final concentration 20, 5 or 1 μg/mL) is added to the wells and incubated at 37° C., 5% CO2. After 24 hours, the plate is centrifuged at 1200 rpm for 3 minutes and the supernatant discarded. Cells are then resuspended in 150 μL (final concentration 7.5 μg/mL) of propidium iodide (PI) in PBS and incubated at 37° C., 5% CO2 for 15 minutes. After 15 minutes, cells are analysed by flow cytometry (BD accuri) using the FL3 window. The % viability is calculated as the % of cells that are P negative in the test wells normalised to the DMSO control.

[1] = Microcentrifuge dissolution test 2): direct dosing into intestinal media containing simulated bile-salt micelles (IB-SIF); format: physicochemical; details: for Concentration, IB Timepoint 0 min / Concentration, IB Timepoint 4 min / Concentration, IB Timepoint 10 min / Concentration, IB Timepoint 20 min / Concentration, IB Timepoint 40 min / Concentration, IB Timepoint 90 min / Concentration, IB Timepoint 1,200 min / Additional concentration, UCF Timepoint 90 min: IB-SIF; for Concentration, IB Timepoint 0 min: pH 6.5, 0 min; for Concentration, IB Timepoint 4 min: pH 6.5, 4 min; for Concentration, IB Timepoint 10 min: pH 6.5, 10 min; for Concentration, IB Timepoint 20 min: pH 6.5, 20 min; for Concentration, IB Timepoint 40 min: pH 6.5, 40 min; for Concentration, IB Timepoint 90 min: pH 6.5, 90 min; for Concentration, IB Timepoint 1,200 min: pH 6.5, 1,200 min; for Additional concentration, UCF Timepoint 90 min / Additional concentration, UCF Timepoint 1,200 min: after ultracentrifugation (free drug + drug in micelles); for Additional concentration, UCF Timepoint 1,200 min: IB-SIF, 1,200 min
Method: In vitro non-sink dissolution performance of the Compound of Example 3 was evaluated alongside Reference Compounds A and B employing microcentrifuge dissolution tests in which samples were either 1) transferred from intestinal buffer (IB) to colonic buffer (CB) or 2) dosed directly into intestinal media containing simulated bile-salt micelles (IB-SIF). Dissolution performance of the compounds at various timepoints was determined by centrifugation and analysis of the supernatant concentrations by off-line reverse-phase HPLC analysis.
Test compounds (0.45 mg±0.05 mg) were weighed into a microcentrifuge tube then 1.800 mL of IB-SIF receptor solution—prepared previously by dissolution of 0.250 g SIF powder (Biorelevant.com) in 50 mL of pH 6.5 PBS warmed to 37° C.—was added. A timer was started and the sample tubes were vortexed at the maximum setting for 1 minute. When the timer read 2, 8, 18, 38, 88 and 1,198 min—corresponding to the 4, 10, 20, 40, 90 and 1,200 min timepoints, respectively—the sample tubes were centrifuged for 1 min at 15,800 RCF. Then, at each timepoint, the supernatant (50 μL) was added to diluent {250 μL of 75/25 THF/Water (v/v)} and the compound concentrations were measured by off-line HPLC analysis (Table 7a). To determine the concentration of free drug+drug in micelles, the HPLC samples for the 90 and 1,200 min timepoints were additionally centrifuged for 8 min at 80,000 rpm at 37° C. in an ultracentrifuge (UCF), then the supernatant (50 μL) was added to diluent {250 PL of 75/25 THF/Water (v/v)} and the compound concentrations were measured by off-line HPLC analysis (Table 7b).

[2] = system: IFN gamma release in PBMCs; assay: IFN gamma release in CD3/CD28 stimulated PBMC cells (assay (c)); format: cell-based; details: Homo sapiens, read-out: IC50 Values in PBMCs IFNγ
Method: PBMCs from healthy subjects are separated from whole blood using a density gradient (Lymphoprep, Axis-Shield Healthcare). Cells are added to a 96 well plate pre-coated with a mixture of CD3/CD28 monoclonal antibodies (0.3 μg/mL eBioscience and 3 μg/mL BD Pharmingen respectively). Compound at the desired concentration is then added to the wells and the plate left for 3 days under normal tissue culture conditions. Supernatants are harvested and IL-2 and IFN gamma release determined by Sandwich ELISA (Duo-set, R&D System). The IC50 is determined from the dose response curve.

TNFα release in PBMCs = assay: LPS-induced TNFα release in PBMC cells (assay (b)); format: cell-based; details: Homo sapiens, LPS-stimulated PBMCs
Method: Peripheral blood mononuclear cells (PBMCs) from healthy subjects are separated from whole blood using a density gradient (Lymphoprep, Axis-Shield Healthcare). The PBMCs are seeded in 96 well plates and treated with compounds at the desired concentration for 2 hours before addition of 1 ng/mL LPS (Escherichia Coli 0111:B4 from Sigma Aldrich) for 24 hours under normal tissue culture conditions (37° C., 5% CO2). The supernatant is harvested for determination of IL-8 and TNFα concentrations by sandwich ELISA (Duo-set, R&D systems) and read on the fluorescence microplate reader (Varioskan® Flash, ThermoFisher Scientific). The concentration at 50% inhibition (IC50) of IL-8 and TNFα production is calculated from the dose response curve.

Syk = Syk (Homo sapiens (Human), UniProt P43405); assay: Syk enzyme inhibition (FRET, Z-LYTE); format: biochemical
Method: The enzyme inhibitory activities of compounds disclosed herein are determined by FRET using synthetic peptides labelled with both donor and acceptor fluorophores (Z-LYTE, Invitrogen Ltd., Paisley, UK).
The inhibitory activities of compounds of the invention against c-Src and Syk enzymes (Invitrogen), are evaluated in a similar fashion to that described hereinabove. The relevant enzyme (3000 ng/mL or 2000 ng/mL respectively, 2.5 μL) is incubated with the test compound (either 1 μg/mL, 0.1 μg/mL, 0.01 μg/mL, or 0.001 μg/mL, 2.5 μL each) for 2 hr at RT. The FRET peptides (8 μM. 2.5 μL), and appropriate ATP solutions (2.5 μL, 800 μM for c-Src, and 60 μM ATP for Syk) are then added to the enzymes/compound mixtures and the mixture incubated for 1 hr. Development reagent (protease, 5 μL) is added for 1 hr prior to detection in a fluorescence microplate reader (Varioskan® Flash, ThermoFisher Scientific).
In all cases, the site-specific protease cleaves non-phosphorylated peptide only and eliminates the FRET signal. Phosphorylation levels of each reaction are calculated using the ratio of coumarin emission (donor) over fluorescein emission (acceptor), for which high ratios indicate high phosphorylation and low ratios indicate low phosphorylation levels. […]

SMILES | % Viability at 1 μg/mL (Jurkat cells) [%] | % Viability at 5 μg/mL (Jurkat cells) [%] | % Viability at 20 μg/mL (Jurkat cells) [%] | Concentration, IB Timepoint 0 min [1] [ng/mL] | Concentration, IB Timepoint 4 min [1] [µg/mL] | Concentration, IB Timepoint 10 min [1] [µg/mL] | Concentration, IB Timepoint 20 min [1] [µg/mL] | Concentration, IB Timepoint 40 min [1] [µg/mL] | Concentration, IB Timepoint 90 min [1] [µg/mL] | Concentration, IB Timepoint 1,200 min [1] [µg/mL] | Additional concentration, UCF Timepoint 90 min [1] [µg/mL] | Additional concentration, UCF Timepoint 1,200 min [1] [µg/mL] | IC50 [2] [µM] | IC50 (TNFα release in PBMCs) [µM] | IC50 (Syk) [µM]
COc1cc(Nc2nccc(Oc3ccc(NC(=O)Nc4cc(C(C)(C)C)cc(NS(C)(=O)=O)c4OC)c4ccccc34)n2)cc(OCCOCCOCCC(=O)O)c1 [Reference Compound A, 3-(2-(2-(3-((4-((4-(3-(5-(tert-butyl)-2-methoxy-3-(methylsulfonamido)phenyl)ureido)naphthalen-1-yl)oxy)-pyrimidin-2-yl)amino)-5-methoxyphenoxy)ethoxy)ethoxy)propanoic acid] | 96 | 93 | 48 | 0 | 39.8 | 63.4 | 83.5 | 96.5 | 99.9 | 101.0 | 87.0 | 88.8 |  |  | 
C#Cc1cc(Nc2nccc(Oc3ccc(NC(=O)Nc4cc(C(C)(C)C)nn4-c4ccc(C)cc4)c4ccccc34)n2)cc(C(=O)NCCOCCOCCOC)c1 [Reference Compound B, 3-((4-((4-(3-(3-(tert-butyl)-1-(p-tolyl)-1H-pyrazol-5-yl)ureido)naphthalen-1-yl)oxy)pyrimidin-2-yl)amino)-5-ethynyl-N-(2-(2-(2-methoxyethoxy)ethoxy)ethyl)benzamide] |  |  |  | 0 | 1.1 | 0.9 | 1.3 | 1.0 | 0.7 | 3.0 | 0.7 | 2.9 |  |  | 
COc1cc(Nc2cc(Oc3ccc(NC(=O)Nc4cc(C(C)(C)C)cc(NS(C)(=O)=O)c4OC)c4ccccc34)ccn2)cc(OCCOCCOCC(=O)O)c1 [Example 3] | 99 | 99 | 96 | 0 | 255.7 | 255.9 | 251.7 | 249.2 | 253.5 | 239.0 | 229.4 | 169.9 | 0.0318 | 0.0108 | 0.012
